Where a name gives a salt, the structure may show the parent alone. Read-outs that look alike come from different tables or passages of the source.
Key:
platelets = test: Platelet aggregation inhibitory activity (method by Born et al., platelet rich plasma, ADP or collagen as inducer); format: cell-based; conditions: rabbit PRP, 400,000 platelets/µl, 37°C
Description: This sample was subjected to centrifugation at 1,100 rpm for 10 minutes to obtain a platelet rich plasma (PRP). The remaining sample was subjected to further centrifugation at 3,000 rpm for 15 minutes to obtain a platelet poor plasma (PPP).
The number of platelets in the PRP obtained above was counted by coulter Counter manufactured by Coulter Electronics Inc. Then, the PRP was diluted with the PPP so that the number of platelets in the PRP after dilution became 400,000 platelets/µl, whereby a PRP solution was prepared.
There were placed in a cell for aggregation determination, 2 µl of a solution containing a test compound at a given concentration and 200 µl of the PRP solution prepared above. The cell was heated at 37°C for 1 minute. Then, to the cell contents was added 20 µl of adenosine diphosphate (ADP, manufactured by Sigma Co.) or 20 µl of a collagen suspension (Collagen Reagent Horm, manufactured by Hormon-Chemie Co.) to induce aggregation of platelets. Then, the platelet aggregation was determined for change in transmittance, and a platelet aggregation curve was drawn.
The mixture aggregation rate (MAR) of platelets was calculated from the platelet aggregation curve, using the following formula.
In the above, MAR was calculated also for a control containing no test compound. Using this MAR as a base, the platelet aggregation inhibitions rate (%) of each test compound at various concentrations were calculated from the following formula. Inhibition rate (%) = [1-(MAR of test compound-containing PRP)/(MAR of test compound-free PRP)] x100 [formula]

mongrel dogs = test: Increase in heart rate in anesthetized mongrel dogs; format: in vivo; conditions: mongrel dogs under pentobarbital sodium anesthesia, artificial breathing; 30 µg/kg through cannula in femoral artery
Description: Increase in heart rate as well as hypotensive activity of test compounds were measured as follows by using mongrel dogs (body weight = 10-20 kg). That is, mongrel dogs were put under anesthesia by intravenous administration of pentobarbital sodium, then fixed at the back position, and subjected to testing under artificial breathing condition. Blood pressure was measured by using a blood pressure transducer (P23XL, manufactured by Gould Statham Instruments, Inc.) via a cannula inserted into the femoral artery of the mongrel dog. Heart rate was measured via a tachometer, based on the pulse wave of the blood pressure. These signals were recorded on a thermal-pen type recorder (Recti-Horiz 8K, manufactured by Nihon Denki San-ei).
The test compounds mentioned in the Pharmacological Test I were also used as test compounds in this Test-II. Each of them was dissolved in a mixed solution of N,N'-dimenthylformamide and a physiological saline solution, and each resulting solution was administered to the test dogs through the cannulas inserted into their femoral arteries, in an amount of 30 µg (test compound)/kg of body weight. The heart rate of each dog after the administration of test compound was measured as mentioned above, whereby the maximum increase in heart rate was obtained.

[1] = Oryctolagus cuniculus, Platelet, aggregation induced by ADP, final concentration 7.5 µM, read-out: IC50 (µM) ADP
[2] = Oryctolagus cuniculus, Platelet, aggregation induced by collagen, final concentration 20 µg/ml, read-out: IC50 (µM) Collagen
[3] = aggregation induced by ADP, final concentration 7.5 µM, read-out: IC50 (µM) ADP
[4] = aggregation induced by collagen, final concentration 20 µg/ml, read-out: IC50 (µM) Collagen

| Compound | IC50 (platelets; [1]) [µM] | IC50 (platelets; [2]) [µM] | Maximum increase in heart rate (beats/min) (Administration amount = 30 µg/kg) (mongrel dogs) | IC50 (platelets; [3]) [µM] | IC50 (platelets; [4]) [µM] | other results |
| --- | --- | --- | --- | --- | --- | --- |
| O=C(CCCCOc1ccc2[nH]c(=O)ccc2c1)N(CCN1CCC(O)CC1)CC1CCCCCCC1 [Test compound 8, 6-[4-{N-cyclooctylmethyl-N-[2-(4-hydroxy-1-piperidinyl)ethyl]aminocarbonyl}butoxy]carbostyril] | 1.7 | 0.7 | – | – | – | – |
| CCN(CC)C[C@H](C)N(CC1CCCCCCC1)C(=O)CCCCOc1ccc2[nH]c(=O)ccc2c1 [Example 21] | 5.4 | 3.2 | 7 | – | – | – |
| 6-[4-{N-cyclohexylmethyl-N-[2-(1-pyrrolidinyl)-ethyl]aminocarbonyl}butoxy]carbostyril [Example 1] | – | – | – | 3.4 | 1.1 | – |
| 6-[4-{N-cyclooctylmethyl-N-[2-(2β-dimethylamino-methyl-1-pyrrolidinyl)ethyl]aminocarbonyl}butoxy]-carbostyril difumarate [Test compound 10] | – | – | – | 3.9 | 1.8 | – |
| CC(=O)NCCN(CC1CCCCCCC1)C(=O)CCCCOc1ccc2[nH]c(=O)ccc2c1 [Test compound 24, 6-{4-[N-cyclooctylmethyl-N-(2-acetylaminoethyl)-aminocarbonyl]butoxy}carbostyril] | – | – | – | – | – | IC50 (platelets; aggregation induced by ADP, final concentration 7.5 µM, listed as 42, read-out: IC50 (µM) ADP): 1.9 µM; IC50 (platelets; aggregation induced by collagen, final concentration 20 µg/ml, listed as 42, read-out: IC50 (µM) Collagen): 1.6 µM |
| O=C(CCCCOc1ccc2[nH]c(=O)ccc2c1)N(CCSC1CCCCO1)CC1CCCCC1 (stereo not drawn) [Example 45] | 2.2 | 2.2 | – | – | – | – |
| O=C(CCCCOc1ccc2[nH]c(=O)ccc2c1)N(CCN1CCC(O)C1)CC1CCCCCCC1 (stereo not drawn) [Test compound 6, 6-[4-{N-cyclooctylmethyl-N-[2-(3-hydroxy-1-pyrrolidinyl)ethyl]aminocarbonyl}butoxy]carbostyril oxalate] | 1.7 | 0.5 | – | – | – | – |
| CC(=O)NCCN(CC1CCCCCCC1)C(=O)CCCCOc1ccc2[nH]c(=O)ccc2c1 [Example 24] | 2.2 | 1.3 | – | – | – | – |
| O=C(CCCCOc1ccc2[nH]c(=O)ccc2c1)N(CCN1CCCCC1CO)CC1CCCCCCC1 (stereo not drawn) [Example 4] | – | – | 6 | 2.7 | 1.6 | – |
| CCN(CCO)CCN(CC1CCCCCCC1)C(=O)CCCCOc1ccc2[nH]c(=O)ccc2c1 [Example 25] | 2.1 | 1.4 | – | – | – | – |
| O=C(CCCCOc1ccc2[nH]c(=O)ccc2c1)N(CCN1CCC(O)C1)CC1CCCCCCC1.O=C(O)C(=O)O (stereo not drawn) [Example 6] | – | – | 5 | 3.5 | 1.3 | – |
| O=C(CCCCOc1ccc2[nH]c(=O)ccc2c1)N(CCN1CCOCC1)CC1CCCCCCC1 [Example 7] | – | – | – | 1.5 | 0.65 | – |
| CCN(CC)CCCCN(CC1CCCCCCC1)C(=O)CCCCOc1ccc2[nH]c(=O)ccc2c1 [Example 18] | 6 | 4.8 | 5 | – | – | – |
| CSCCC(CO)N(CC1CCCCC1)C(=O)CCCCOc1ccc2[nH]c(=O)ccc2c1 (stereo not drawn) [Example 46] | 1.1 | 0.53 | – | – | – | – |
| CCN(CC)CCN(CC1CCCCCCC1)C(=O)CCCCOc1ccc2c(c1)CCC(=O)N2 [Example 20] | – | – | 4 | 21.2 | 7 | – |
| 6-[4-(N-cyclooctylmethyl-N-diethylamidomethyl)-aminocarbonyl]butoxy}carbostyril [Test compound 19] | – | – | – | 2.1 | 1.3 | – |
| CSCCC(COC(C)=O)N(CC1CCCCC1)C(=O)CCCCOc1ccc2[nH]c(=O)ccc2c1 (stereo not drawn) [Example 47] | 0.63 | 0.49 | – | – | – | – |
| C=CCN(CC)CCN(CC1CCCCCCC1)C(=O)CCCCOc1ccc2[nH]c(=O)ccc2c1 [Example 26] | 3.6 | 1.3 | – | – | – | – |
| CCN(CC)C[C@H](CO)N(CC1CCCCCCC1)C(=O)CCCCOc1ccc2[nH]c(=O)ccc2c1 [Example 22] | 1.2 | 0.8 | – | – | – | – |
| CCN(CC)CCCN(CC1CCCCCCC1)C(=O)CCCCOc1ccc2[nH]c(=O)ccc2c1 [Example 17] | 5 | – | – | – | 2.8 | – |
| CCN(CC)CCCCN(CC1CCCCCCC1)C(=O)CCCCOc1ccc2[nH]c(=O)ccc2c1.O=C(O)C(=O)O [Test compound 18, 6-{4-[N-cyclooctylmethyl-N-(4-diethylaminobutyl)-aminocarbonyl]butoxy}carbostyril oxalate] | – | – | 2 | – | – | IC50 (platelets; aggregation induced by ADP, final concentration 7.5 µM, listed as 29, oxalate, read-out: IC50 (µM) ADP): 8.3 µM; IC50 (platelets; aggregation induced by collagen, final concentration 20 µg/ml, listed as 29, oxalate, read-out: IC50 (µM) Collagen): 3.7 µM |
| CCN(CC)CCN(CC1CCCCCCC1)C(=O)CCCCOc1ccc2c(c1)CCC(=O)N2 [Test compound 20, 6-{4-[N-cyclooctylmethyl-N-(2-diethylaminoethyl)-aminocarbonyl]butoxy}3,4-dihydrocarbostyril oxalate] | – | – | – | – | – | IC50 (platelets; aggregation induced by ADP, final concentration 7.5 µM, listed as 34, oxalate, read-out: IC50 (µM) ADP): 0.84 µM; IC50 (platelets; aggregation induced by collagen, final concentration 20 µg/ml, listed as 34, oxalate, read-out: IC50 (µM) Collagen): 0.48 µM |
| O=C(CCCCOc1ccc2[nH]c(=O)ccc2c1)N(CCS)CC1CCCCC1 [Example 44] | 5 | 3.6 | 11 | – | – | – |
| CC1CCCC(C)N1CCN(CC1CCCCCCC1)C(=O)CCCCOc1ccc2[nH]c(=O)ccc2c1 (stereo not drawn) [Example 9] | – | – | 0 | 4.5 | 1.6 | – |
| CCN(CC)C(=O)CN(CC1CCCCCCC1)C(=O)CCCCOc1ccc2[nH]c(=O)ccc2c1 [Example 19] | 1.5 | 0.71 | – | – | – | – |
| O=C(CCCCOc1ccc2[nH]c(=O)ccc2c1)N(CCn1ccnc1)CC1CCCCC1 [Example 12] | – | – | 12 | 6 | 3.2 | – |
| CCN(CC)CCCN(CC1CCCCCCC1)C(=O)CCCCOc1ccc2[nH]c(=O)ccc2c1 [Test compound 17, 6-{4-[N-cyclooctylmethyl-N-(3-diethylaminopropyl)-aminocarbonyl]butoxy}carbostyril oxalate] | – | – | – | – | – | IC50 (platelets; aggregation induced by ADP, final concentration 7.5 µM, listed as 28, oxalate, read-out: IC50 (µM) ADP): 2.8 µM; IC50 (platelets; aggregation induced by collagen, final concentration 20 µg/ml, listed as 28, oxalate, read-out: IC50 (µM) Collagen): 1.2 µM |
| CCN(CC)CCN(CC1CCCCCCC1)C(=O)CCCCOc1ccc2[nH]c(=O)ccc2c1 [Example 16] | 3 | 1.1 | 7 | – | – | – |
